Calls of active or inactive are those of the source. How the calls were made is not given here.
Each compound was assayed against GTP-binding nuclear protein Ran (Homo sapiens) + Importin subunit beta-1 (Homo sapiens) (UniProt P62826+Q14974) (assay: RanGTP/importin-beta interaction disruptors – biochemical, plate reader, dry powder, dose response (AID 493048)). Conditions: biochemical RanGTP-importin-beta complex.

Row | SMILES | AC50 [µM]
1 | CC(C)SCC(=O)Nc1ncc2c(n1)-c1ccccc1CC2 | 37.3
2 | Cc1cccc(-n2c(C)cc(/C=C3/C(=N)N4N=C(CC(C)C)SC4=NC3=O)c2C)c1 | 28.2
3 | O=C(O)Cn1cc(/C=C2\SC(=O)N(CC(=O)N3CCCCCC3)C2=O)c2ccccc21 | 90.9
4 | COc1ccc(-c2cc(C(F)(F)F)n3nc(N)nc3n2)cc1 | 61.5
5 | COc1ccc(CCNC(=O)c2cc3c(=O)n4cccc(C)c4nc3n(CCCN3CCOCC3)c2=N)cc1 | 9.68
6 | COc1cc(OC)cc(C(=O)NCCNc2nc3cc(C)cc(C)c3cc2C#N)c1 | 12.9
7 | CC1=C(C(=O)OCC2CCCO2)C(c2ccccc2OC(C)C)C2C(=O)CC(c3ccco3)CC2=N1 (stereo unspecified) | 10.3
8 | C=CCn1c(N)c(C(=O)OCCC)c2nc3ccccc3nc21 | 36.4

Same assay, conditions: biochemical RanGTP-importin-beta complex, at 26 µM (top of the series)

Row | SMILES | activity change, negative = inhibition
9 | CCCN(CCC)c1nc(N2CCCC2)c2cc(OC)c(OC)cc2n1 | inactive

Same assay, conditions: biochemical RanGTP-importin-beta complex, at 50 µM (top of the series)

Row | SMILES | activity change, negative = inhibition
10 | CCCN(CCC)c1nc(N2CCCC2)nc2cc(OC)c(OC)cc12 | inactive

Same assay, conditions: biochemical RanGTP-importin-beta complex, at 100 µM (top of the series)

Row | SMILES | activity change, negative = inhibition
11 | c1ccc(CNc2nc(N3CCCC3)nc3ccccc23)cc1 | inactive
12 | Clc1nc(NCc2ccccc2)c2ccccc2n1 | inactive
13 | C[C@H](Nc1nc(N2CCCC2)nc2ccccc12)c1ccccc1 | inactive
14 | c1ccc2c(N3CCOCC3)nc(N3CCOCC3)nc2c1 | inactive
15 | C[C@H](Nc1nc(Cl)nc2ccccc12)c1ccccc1 | inactive
16 | Cc1cc(Nc2ccc(C(F)(F)F)cc2)n2ncnc2n1 | inactive
17 | CC(Nc1nc(N2CCCC2)nc2ccccc12)c1ccccc1 (stereo unspecified) | inactive
18 | CCN(CC)c1nc(N2CCCC2)nc2ccccc12 | inactive
19 | CC1(C)CCC(c2ccc(Cl)cc2)=C(CN2CCN(c3ccc(C(=O)NS(=O)(=O)c4ccc(N[C@H](CCN5CCOCC5)CSc5ccccc5)c(S(=O)(=O)C(F)(F)F)c4)cc3)CC2)C1 | inactive
20 | CCNc1nc(N2CCCC2)nc2ccccc12 | inactive
21 | O=c1[nH]c(N2CCCC2)nc2ccccc12 | inactive
22 | CC1(C)CC(=O)c2c(C(F)(F)F)nn(-c3ccc(C(N)=O)c(NC4CCC(O)CC4)c3)c2C1 (stereo unspecified) | inactive
23 | Cc1cccc(C)c1NC(=O)C1C(=O)c2sccc2N(C)S1(=O)=O (stereo unspecified) | inactive
24 | CCCN(CCC)c1nc(N)c2ccccc2n1 | inactive
25 | COc1cc2nc(N3CCCC3)nc(N3CCCC3)c2cc1OC | inactive
26 | CC1(C)CC(=O)c2c(C(F)(F)F)nn(-c3ccc(C(N)=O)c(OC4CCC(N)CC4)c3)c2C1 (stereo unspecified) | inactive
27 | C[C@@H](Nc1nc(Cl)nc2ccccc12)c1ccccc1 | inactive
28 | CC1(C)CC(=O)c2c(C(F)(F)F)nn(-c3ccc(C(N)=O)c(NC4CCC(OC(=O)CN)CC4)c3)c2C1 (stereo unspecified) | inactive
29 | c1ccc2c(N3CCCC3)nc(N3CCCC3)nc2c1 | inactive
30 | CCCN(CCC)c1nc(N2CCCC2)nc2ccccc12 | inactive
31 | CSc1ccc(/C=C(/Sc2nnc(-c3ccccc3)o2)C(=O)O)cc1 | inactive
32 | CCCN(CCC)c1nc(N2CCOCC2)nc2ccccc12 | inactive
33 | CCCN(CCC)c1nc(N2CCNCC2)c2ccccc2n1 | inactive
34 | C[C@@H](Nc1nc(N2CCCC2)nc2ccccc12)c1ccccc1 | inactive
35 | CCCN(CCC)c1nc(NCc2ccccc2)nc2ccccc12 | inactive
36 | CCCN(CCC)c1nc(Cl)nc2ccccc12 | inactive
